The source made the active and inactive calls. No cut-off for these calls is given here.
Legend:
Rattus norvegicus [1] = test: Antiosteoporotic activity in ovariectomized Sprague-Dawley rat assessed as bone volume /tissue volume recovery at 10 ug/kg, po qd measured at 18th week by micro-CT analysis relative to SHAM control; format: functional
Rattus norvegicus [2] = test: Antiosteoporotic activity in ovariectomized Sprague-Dawley rat assessed as decrease in serum osteocalcin level at 10 ug/kg, po qd at 18th week by enzyme immunoassay relative to SHAM control; format: functional, organism-based
Rattus norvegicus [3] = test: Antiosteoporotic activity in ovariectomized Sprague-Dawley rat assessed as serum osteocalcin level at 1 ug/kg, po qd at 12th week by enzyme immunoassay (reference value: 1055.8 +/- 14 ng/ml); format: functional
Rattus norvegicus [4] = test: Antiosteoporotic activity in ovariectomized Sprague-Dawley rat assessed as bone volume /tissue volume at 10 ug/kg, po qd at 12th week by micro-CT analysis (reference value: 31.61 +/- 2.39%); format: functional
Rattus norvegicus [5] = test: Antiosteoporotic activity in ovariectomized Sprague-Dawley rat assessed as bone volume /tissue volume at 3 ug/kg, po qd at 12th week by micro-CT analysis (reference value: 31.61 +/- 2.39%); format: functional
Rattus norvegicus [6] = test: Antiosteoporotic activity in ovariectomized Sprague-Dawley rat assessed as bone volume /tissue volume at 1 ug/kg, po qd at 6th week by micro-CT analysis (reference value: 41.33 +/- 5.04%); format: functional
Rattus norvegicus [7] = test: Antiosteoporotic activity in ovariectomized Sprague-Dawley rat assessed as trabecular thickness at 1 ug/kg, po qd at 6th week by micro-CT analysis (reference value: 0.086 +/- 0.0069 millimeter); format: functional, Trabecula
[8] = n-octanol-water partition coefficient, log P of the compound after 24 hrs by HPLC analysis; format: physicochemical
Rattus norvegicus [9] = test: Antiosteoporotic activity in ovariectomized Sprague-Dawley rat assessed as trabecular separation at 1 ug/kg, po qd at 6th week by micro-CT analysis (reference value: 0.116 +/- 0.010 millimeter); format: functional, Trabecula
Rattus norvegicus [10] = test: Antiosteoporotic activity in ovariectomized Sprague-Dawley rat assessed as serum osteocalcin level at 10 ug/kg, po qd at 12th week by enzyme immunoassay (reference value: 1055.8 +/- 14 ng/ml); format: functional
Rattus norvegicus [11] = test: Antiosteoporotic activity in ovariectomized Sprague-Dawley rat assessed as trabecular separation at 3 ug/kg, po qd at 6th week by micro-CT analysis (reference value: 0.116 +/- 0.010 millimeter); format: functional, Trabecula
Rattus norvegicus [12] = test: Antiosteoporotic activity in ovariectomized Sprague-Dawley rat assessed as trabecular thickness at 10 ug/kg, po qd at 18th week by micro-CT analysis (reference value: 0.103 +/- 0.0044 millimeter); format: functional, Trabecula
Rattus norvegicus [13] = test: Antiosteoporotic activity in ovariectomized Sprague-Dawley rat assessed as trabecular thickness recovery at 10 ug/kg, po qd measured at 18th week by micro-CT analysis relative to SHAM control; format: functional, Trabecula
Rattus norvegicus [14] = test: Antiosteoporotic activity in ovariectomized Sprague-Dawley rat assessed as trabecular separation recovery at 10 ug/kg, po qd measured at 18th week by micro-CT analysis relative to SHAM control; format: functional, organism-based; details: Trabecula
Rattus norvegicus [15] = test: Antiosteoporotic activity in ovariectomized Sprague-Dawley rat assessed as trabecular separation at 1 ug/kg, po qd at 18th week by micro-CT analysis (reference value: 0.234 +/- 0.021 millimeter); format: functional, Trabecula
Rattus norvegicus [16] = test: Antiosteoporotic activity in ovariectomized Sprague-Dawley rat assessed as trabecular separation at 10 ug/kg, po qd at 6th week by micro-CT analysis (reference value: 0.116 +/- 0.010 millimeter); format: functional, Trabecula
Rattus norvegicus [17] = test: Antiosteoporotic activity in ovariectomized Sprague-Dawley rat assessed as trabecular thickness at 3 ug/kg, po qd at 6th week by micro-CT analysis (reference value: 0.086 +/- 0.0069 millimeter); format: functional, Trabecula
Rattus norvegicus [18] = test: Antiosteoporotic activity in ovariectomized Sprague-Dawley rat assessed as bone volume /tissue volume at 1 ug/kg, po qd at 12th week by micro-CT analysis (reference value: 31.61 +/- 2.39%); format: functional
Rattus norvegicus [19] = test: Antiosteoporotic activity in ovariectomized Sprague-Dawley rat assessed as serum osteocalcin level at 3 ug/kg, po qd at 12th week by enzyme immunoassay (reference value: 1055.8 +/- 14 ng/ml); format: functional
Rattus norvegicus [20] = test: Antiosteoporotic activity in ovariectomized Sprague-Dawley rat assessed as bone mineral density recovery at 10 ug/kg, po qd measured at 18th week by micro-CT analysis relative to SHAM control; format: functional
Rattus norvegicus [21] = test: Antiosteoporotic activity in ovariectomized Sprague-Dawley rat assessed as trabecular separation at 1 ug/kg, po qd at 12th week by micro-CT analysis (reference value: 0.146 +/- 0.010 millimeter); format: functional, Trabecula
Rattus norvegicus [22] = test: Antiosteoporotic activity in ovariectomized Sprague-Dawley rat assessed as decrease in serum osteocalcin level at 3 ug/kg, po qd at 18th week by enzyme immunoassay relative to SHAM control; format: functional, organism-based
Rattus norvegicus [23] = test: Antiosteoporotic activity in ovariectomized Sprague-Dawley rat assessed as trabecular separation at 3 ug/kg, po qd at 18th week by micro-CT analysis (reference value: 0.234 +/- 0.021 millimeter); format: functional, Trabecula
Estrogen receptor beta = Estrogen receptor beta (Homo sapiens, UniProt Q92731); test: Agonist activity at ERbeta (248 to 510 amino acid residues) (unknown origin) assessed as induction of interaction with SRC1 after 24 hrs by yeast two-hybrid assay
Rattus norvegicus [24] = test: Antiosteoporotic activity in ovariectomized Sprague-Dawley rat assessed as bone volume /tissue volume at 3 ug/kg, po qd at 6th week by micro-CT analysis (reference value: 41.33 +/- 5.04%); format: functional

Sequence of Estrogen receptor beta (Q92731 whole entry, the tested form may be a part): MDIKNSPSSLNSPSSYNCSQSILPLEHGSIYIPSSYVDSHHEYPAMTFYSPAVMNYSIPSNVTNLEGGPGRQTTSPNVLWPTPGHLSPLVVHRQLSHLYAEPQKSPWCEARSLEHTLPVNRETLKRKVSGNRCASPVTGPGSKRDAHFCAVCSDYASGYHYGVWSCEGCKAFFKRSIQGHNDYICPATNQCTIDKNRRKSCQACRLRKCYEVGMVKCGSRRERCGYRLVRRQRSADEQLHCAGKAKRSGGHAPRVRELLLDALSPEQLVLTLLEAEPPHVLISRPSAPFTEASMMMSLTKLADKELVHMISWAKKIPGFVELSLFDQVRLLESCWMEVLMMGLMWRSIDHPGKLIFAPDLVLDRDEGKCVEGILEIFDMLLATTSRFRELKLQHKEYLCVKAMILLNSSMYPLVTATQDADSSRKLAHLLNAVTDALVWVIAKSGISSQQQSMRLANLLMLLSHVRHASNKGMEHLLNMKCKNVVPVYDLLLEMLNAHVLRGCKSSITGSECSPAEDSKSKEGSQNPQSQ

With `O=C1c2cc(O)cc(O)c2[C@@H](c2ccc(O)cc2)[C@@H]1c1cc(O)cc(O)c1` [ISOPAUCIFLORAL F] the Activity (Rattus norvegicus [1]) was 78%, the Activity (Rattus norvegicus [2]) was “Active” and the Activity (Rattus norvegicus [3]) was 1172.9 ng/mL. The Activity (Rattus norvegicus [4]) was 38.43%, the Activity (Rattus norvegicus [5]) was 41.01% and the Activity (Rattus norvegicus [6]) was 40.38%. It also gave an Activity (Rattus norvegicus [7]) of 0.083 mm, a logP at 24 h [8] of 1.34 and an Activity (Rattus norvegicus [9]) of 0.104 mm. For the same compound, the Activity (Rattus norvegicus [10]) was 1156.07 ng/mL, the Activity (Rattus norvegicus [11]) was 0.097 mm and the Activity (Rattus norvegicus [12]) was 0.212 mm. The Activity (Rattus norvegicus [13]) was 78%, the Activity (Rattus norvegicus [14]) was “inactive” and the Activity (Rattus norvegicus [15]) was 0.183 mm. The Activity (Rattus norvegicus [16]) was 0.118 mm, the Activity (Rattus norvegicus [17]) was 0.092 mm and the Activity (Rattus norvegicus [18]) was 31.46%. The Activity (Rattus norvegicus [19]) was 1109.6 ng/mL, the Activity (Rattus norvegicus [20]) was 90% and the Activity (Rattus norvegicus [21]) was 0.18 mm. The Activity (Rattus norvegicus [22]) was “Active”, the Activity (Rattus norvegicus [23]) was 0.183 mm and the EC50 (Estrogen receptor beta) was 47 µM. For the same compound, the Activity (Rattus norvegicus [24]) was 52.56%.
